The source of these data is patent publication US7015209B2, “Hair-growing agent” (Kyowa Hakko Kogyo Co., Ltd., priority 1999, dated 2006).

The subject of one data set is protein kinase C (PKC). Kind of data set: Measurement of PKC-inhibiting activity (PKC-IC50). The following applies: for IC50: read-out: PKC-IC50, crude enzyme partially purified from rat brain. How it is done: (1) Method for Measuring PKC-Inhibiting Activity
Measurement of PKC-inhibiting activity can be carried out in a manner similar to the method of Kikkawa, et al. [Journal of Biological Chemistry, 257, 13341 (1982)].
To 250 μl of an aqueous solution comprising 2.5 μmol of magnesium acetate, 50 μg of histone Type IIIS (Sigma Chemical Co., Ltd.), 20 μg of phosphatidylserine, 0.8 μg. of diolein, 25 nmol of calcium chloride, 5 μg of a crude enzyme (partially purified from rat brain by the method of Kikkawa, et al.) and 5 μmol of Tris-HCl buffer (pH 7.5) is added the above aqueous solution containing a test compound (10 μl), followed by incubation at 30° C. for 3 minutes. After the incubation, 1.25 nmol of [γ-^32P]ATP (5–10×10^3 cpm/nmol) is added thereto, followed by phosphorylation reaction at 30° C. for 3 minutes. The reaction is terminated by addition of 25% trichloroacetic acid and the reaction mixture is filtered through a cellulose acetate membrane (pore size: 0.45 μm, Toyo Filter Co., Ltd.) After the membrane is washed four times with 5% trichloroacetic acid, the radioactivity remaining on the membrane is measured as a test compound value. Separately, the above procedure is carried out in the same manner without addition of the test compound and the radioactivity is measured as a control value.
The molar concentration of the test compound giving a test compound value which is 50% of the control value is regarded as the 50% PKC inhibition constant (PKC-IC50).

The next data set deals with protein kinase A (PKA) (Bos taurus, UniProt P00517). Kind of data set: Measurement of PKA-inhibiting activity (PKA-IC50). In kind it is biochemical. Conditions: crude enzyme partially purified from calf heart. The source says:
(2) Method for Measuring PKA-Inhibiting Activity

Data set [1] has as its system mouse hair follicle epithelial cells. Kind of data set: Cell growth-promoting effect on cultured mouse hair follicle epithelial cells (MTT). In kind it is cell-based. As to the method: Hair follicle epithelial cells were separated and cultured according to a modification of the method of Tanigaki, et al. [Archives of Dermatological Research, 284, 290–296 (1992)].
The skin on the back of a 4-days-old C3H mouse (Charles River Japan, Inc.) was cut off and treated with MEM (Eagle's Minimum Essential Medium) containing 500 units/ml Dispase (Godo Shusei Co., Ltd.) and 5% fetal calf serum (FCS) at 4° C. for 16 hours.
Then, the epidermis was stripped from the skin section, and the obtained dermis layer was treated with DMEM (Dulbecco's modified Eagle Medium) containing 0.25% Collagenase N-2 (Nitta Gelatin Co., Ltd.) and 10% FCS at 37° C. for one hour to obtain a dermis suspension. The dermis suspension was filtered through a 212-μm nylon mesh (Nippon Rikagaku Kikai Co., Ltd.) and the filtrate was centrifuged at 1000 rpm for 5 minutes to obtain pellets containing hair follicle tissue. To the pellets was added calcium/magnesium-free PBS (Dulbecco's Phosphate-Buffered Saline) and the pellets were suspended therein using a pipette. The resulting suspension was allowed to stand for 15 minutes to precipitate hair tissue. The same procedure as above (addition of calcium/magnesium-free PBS, suspending by use of a pipette, and precipitation by allowing suspension to stand for 15 minutes) was repeated three times using the obtained hair tissue.
Then, the hair tissue was treated with a solution containing 0.1% ethylenediaminetetraacetic acid (EDTA) and 0.25% trypsin (Gibco) at 37° C. for 5 minutes. To the resulting mixture was added DMEM containing 10% FCS to prepare a hair tissue cell suspension having a density of 3×10^5 cells/ml. The hair tissue cell suspension was put into wells of a 24-well collagen-coated plate (Iwaki Glass Co., Ltd.) in an amount of 1 ml/well, followed by culturing in 5% CO2 at 37° C. for 24 hours.
After the culturing, the medium was replaced by a medium prepared by adding to MCDB153 medium (Kyokuto Pharmaceutical Ind. Co., Ltd.) DMSO containing 5 mg/l bovine insulin (Sigma Chemical Co., Ltd.); 5 μg/l mouse epidermal growth factor (EGF) (Takara Shuzo Co., Ltd.); 40 mg/l bovine pituitary extract (Kyokuto Pharmaceutical Ind. Co., Ltd.); 10 mg/l human transferrin (Sigma Chemical Co., Ltd.); 0.4 mg/l hydrocortisone (Sigma Chemical Co., Ltd.); 0.63 μg/l progesterone (Collaborative Research Co.); 14 mg/l O-phosphoethanolamine (Sigma Chemical Co., Ltd.); 6.1 mg/l ethanolamine (Sigma Chemical Co., Ltd.); 50 U/ml penicillin (Wako Pure Chemical Industries, Ltd.); 50 μg/ml streptomycin (Wako Pure Chemical Industries, Ltd.); monooleoyl lysophosphatidic acid, dioleoyl phosphatidic acid (Sigma Chemical Co., Ltd.), didecanoyl phosphatidic acid (Sigma Chemical Co., Ltd.), dimyristoyl phosphatidic acid (Funakoshi Co., Ltd.), dipalmitoyl phosphatidic acid (Wako Pure Chemical Industries, Ltd.), dilauroyl phosphatidic acid (Funakoshi Co., Ltd.) or egg yolk-derived phosphatidic acid (Sigma Chemical Co., Ltd.); and/or proanthocyanidin, a protein kinase C-specific inhibitor or tocopherol (added in an amount of 1/100 by volume), followed by further culturing in 5% CO2 at 37° C. for 5 days. During the culturing, the medium was replaced with a fresh one every other day.
As a control, the cells were cultured in the same medium as above except that DMSO alone was added in an amount of 1/100 by volume in place of DMSO containing lysophosphatidic acid or phosphatidic acid, and/or proanthocyanidin, a protein kinase C-specific inhibitor or tocopherol.
The degree of cell growth was measured according to the method using MTT [3-(4,5-dimethylthiazol-2-yl)-2,5-diphenyl tetrazolium bromide] [Experimental Medicine (extra number), Bio Manual UP Series, Experimental Method of Cell Culture for Molecular Biological Studies, p. 89–92, Yodosha (1995)].
To each well of the 24-well microplate (2 cm^2/well) was added a PBS solution of MTT (5 mg/ml) in an amount of 1/10 by volume based on 1 ml of the culture. […]

Where [2] appears, read: Table 2 (1), 30 μmol/l alone, 5 days culture.
[3] abbreviates: Table 2 (2), 10 μmol/l alone, 5 days culture.
[4] abbreviates: Table 2 (1), 3 μmol/l alone, 5 days culture.

Where two headings read alike, the source gives them in different places.

A word on the IC50: it is the concentration at which inhibition is half-maximal. For `CCCCCCCCCCCCCCCC(=O)OC(CC(=O)[O-])C[N+](C)(C)C` (racemic) [Palmitoyl-DL-carnitine], in the data set with protein kinase C (PKC), the PKA-IC50/PKC-IC50 was over 4.3 and the IC50 came out at 230 µM. On protein kinase A (PKA), this compound returned a concentration for half-maximal inhibition (IC50) of over 1000 µM. As to `Cc1c(C)c2c(c(C)c1O)CCC(C)(CCCC(C)CCCC(C)CCCC(C)C)O2` (racemic) [dl-α-Tocopherol], the “Relative cell growth rate based on the control as 100” value (“Relative cell growth rate based” for short) came out at 150 in data set [1] (setting [2]) and 199 in data set [1] (Table 2 (2), 30 μmol/l alone).

On to `CCCCCCCCCC(=O)OCC(COP(=O)(O)O)OC(=O)CCCCCCCCC` (stereo not drawn) [Didecanoyl phosphatidic acid, didecanoyl phosphatidic acid], for which the “Relative cell growth rate based” value in data set [1] (Table 2 (2), 1 μmol/l alone) is 168.

Take `CCCCCCCCCCCC(=O)OC[C@H](COP(=O)(O)O)OC(=O)CCCCCCCCCCC` [Dilauroyl phosphatidic acid, dilauroyl phosphatidic acid]: the “Relative cell growth rate based” value in data set [1] (setting [3]) is given as 379. With `CCCCCCCCCCCCCC(=O)OCC(COP(=O)(O)O)OC(=O)CCCCCCCCCCCCC` (stereo not drawn) [Dimyristoyl phosphatidic acid, dimyristoyl phosphatidic acid], in data set [1] (setting [3]), the “Relative cell growth rate based” value stood at 361. With `CCCCCCCC/C=C\CCCCCCCC(=O)OC[C@H](COP(=O)(O)O)OC(=O)CCCCCCC/C=C\CCCCCCCC` [Dioleoyl phosphatidic acid, dioleoyl phosphatidic acid], in data set [1] (setting [3]), the “Relative cell growth rate based” value amounted to 255.

Turning to `CCCCCCCCCCCCCCCC(=O)OC[C@H](COP(=O)(O)O)OC(=O)CCCCCCCCCCCCCCC` [Dipalmitoyl phosphatidic acid, dipalmitoyl phosphatidic acid], in data set [1] (Table 2 (2), 20 μmol/l alone), the “Relative cell growth rate based” value stood at 314.

Consider `CCCCCCCC/C=C\CCCCCCCC(=O)OC[C@@H](O)COP(=O)(O)O` [Monooleoyl lysophosphatidic acid, monooleoyl lysophosphatidic acid], for which the “Relative cell growth rate based” value in data set [1] (setting [4]) turned out to be 200. As to `Oc1cc(O)c2c(c1)O[C@H](c1ccc(O)c(O)c1)[C@H](O)[C@H]2c1c(O)cc(O)c2c1O[C@H](c1ccc(O)c(O)c1)[C@H](O)C2` [Procyanidin B-2, epicatechin-(4β→8)-epicatechin], the “Relative cell growth rate based” value is on record as 260 in data set [1] (setting [2]) and 251 in data set [1] (setting [3]). As to Calphostin C, the PKA-IC50/PKC-IC50 in the data set on protein kinase C (PKC) (ratio of PKA-IC50 to PKC-IC50) was >1000 ∥mol/l. The values for the IC50 at protein kinase C (PKC) and against protein kinase A (PKA) were 0.05 µM and over 50 µM, respectively. The “Relative cell growth rate based” value in data set [1] (setting [4]) is 180; in data set [1] (Table 2 (2), 0.01 μmol/l alone), 172. With Polymyxin B, in the data set on protein kinase C (PKC), the PKA-IC50/PKC-IC50 is over 384 and the IC50 is 2.6 µM. At protein kinase A (PKA), this compound gave an IC50 of over 1000 µM.
